In PMC11762167, “G Protein-Coupled Receptor 17 Inhibits Glucagon-like Peptide-1 Secretion via a Gi/o-Dependent Mechanism in Enteroendocrine Cells” (Biomolecules, 2024):
Values belong to the molecule of their own block, whether it stands above or below them. Starred links: 1 amine or outer side, 2 acyl side, 3 side chain; linkers in the order of their positions; H or OH if unused. Positions of bridges follow the written chain, without caps; N, C: chain ends. Non-standard residues stand in square brackets, D forms with d. Residues, ends and D or L forms follow the SMILES beside them. No end group written: not given here. X1 = CC(=O)NC(C(=O)OC(C(C)C)C(N[*:1])C(=O)[*:2])C(O)C(C)C; PhLac = O=C(O)[CH](O)Cc1ccccc1; NMeT = CN[CH](C(=O)O)[CH](C)O; NMeA = CN[CH](C)C(=O)O; NMeDha = C=C(NC)C(=O)O

Key:
[1] = system: GLUTag cells; assay: GLP-1 secretion from control-transduced or untransduced GLUTag cells; type: cell-based, murine
Protocol: (§1) GLUTag cells were maintained in Dulbecco’s Modified Eagle Medium (DMEM) supplemented with 10% fetal bovine serum and 1% penicillin–streptomycin in a humidified incubator at 37 °C and 5% CO2. For adenovirus transduction, GLUTag cells were seeded into poly-D-lysine coated 96-well plates or 4-chamber slides. The next day, cells were transduced with adenoviruses (100–1250 viral particles per cell at time of seeding) as indicated. After 24–30 h, adenovirus-containing media was changed to serum-free growth media for overnight serum starvation. The following day, GLUTag cells were used for cAMP or calcium signaling assays, GLP-1 secretion assays, or immunostaining and imaging.
(§2) GLUTag cells were seeded into poly-D-lysine-coated 96-well plates and transduced with adenovirus as specified above and then tested for GLP-1 secretion. Medium was removed and cells were washed two times with GLP-1 secretion buffer (138 mM NaCl, 4.5 mM KCl, 4.2 mM NaHCO3, 2.5 mM CaCl2, 1.2 mM MgCl2, 10 mM HEPES, 1 mM glucose, and 0.1% bovine serum albumin, pH 7.4). Cells were stimulated for 2 h with indicated treatments diluted in GLP-1 secretion buffer for a total volume of 200 µL/well at 37 °C and 5% CO2. Plates were then centrifuged at 300× g for 1 min at 4 °C, and 75 µL of the supernatant was removed and frozen at −80 °C until subsequent GLP-1 quantification. Total GLP-1 was quantified using the Meso Scale Discovery Total GLP-1 V-PLEX kit (Rockville, MD, USA; K1503PD) according to manufacturer’s instructions. For PTX treatment conditions, cells were pretreated with 100 ng/mL PTX overnight. For experiments with YM-254890, cells were pretreated for 15 min at 37 °C and 5% CO2.

[2] = target: T1, hGPR17L (Homo sapiens, UniProt Q13304); assay: GLP-1 secretion from GLUTag cells expressing hGPR17L; type: cell-based; design: host or cells: GLUTag cells (murine enteroendocrine line), adenoviral transduction
T1 sequence (Q13304 whole entry): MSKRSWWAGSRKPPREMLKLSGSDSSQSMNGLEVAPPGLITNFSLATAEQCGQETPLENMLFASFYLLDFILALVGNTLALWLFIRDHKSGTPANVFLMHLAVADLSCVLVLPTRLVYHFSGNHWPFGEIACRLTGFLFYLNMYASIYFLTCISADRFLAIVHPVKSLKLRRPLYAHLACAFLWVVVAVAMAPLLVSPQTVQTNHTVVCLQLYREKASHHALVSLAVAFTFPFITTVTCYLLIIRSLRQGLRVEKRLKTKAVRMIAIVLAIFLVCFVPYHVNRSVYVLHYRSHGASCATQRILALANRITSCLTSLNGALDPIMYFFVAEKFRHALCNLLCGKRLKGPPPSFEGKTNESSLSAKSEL
Protocol: as §1, §2

[3] = target: T1, hGPR17L; assay: Calcium flux (Calcium 6) in GLUTag cells expressing hGPR17L; type: cell-based; design: host or cells: GLUTag cells (murine enteroendocrine line), adenoviral transduction
Protocol: as §1
GLUTag cells were seeded into black, clear bottom, poly-D-lysine-coated 96-well plates. Cells were transduced and serum starved as specified above. Growth medium was then replaced with 100 μL/well assay buffer (HBSS, 20 mM HEPES, pH 7.4) and 100 μL/well Calcium 6 loading dye (R8190; Molecular Devices, San Jose, CA, USA). During dye loading, cells were incubated at 37 °C and 5% CO2 for 2 h. MDL29,951 or KCl was added to the wells and fluorescence (485 nm excitation, 525 nm emission, and 515 nm automatic emission cutoff) was measured using a Molecular Devices FlexStation3 (Molecular Devices) at 37 °C. For experiments with PTX, cells were pretreated with 100 ng/mL PTX overnight and 100 ng/mL PTX was included with Calcium 6 loading dye for calcium flux assays. For experiments with YM-254890, cells were pretreated for 30 min at 37 °C.

[4] = target: T1, hGPR17L; assay: Endpoint cAMP (HTRF) in GLUTag cells expressing hGPR17L; type: cell-based; design: host or cells: GLUTag cells (murine enteroendocrine line), adenoviral transduction; conditions: for Predicted (LS) mean diff.: Fig 2B, Forskolin, +Vehicle vs. +100 nM YM-254890
Protocol: as §1
Endpoint cAMP measurements were conducted as follows. GLUTag cells were seeded into poly-D-lysine-coated 96-well plates and transduced with adenovirus as specified above and then tested for cAMP signaling. Medium was removed and cells were washed with cAMP stimulation buffer (Hanks’ balanced salt solution (HBSS), 20 mM HEPES, pH 7.4) and then incubated in cAMP stimulation buffer for 30 min at 37 °C and 5% CO2. Cells were then treated for 30 min with agonist and forskolin in the presence of 500 µM IBMX at 37 °C and 5% CO2. Stimulation buffer was then decanted, and cAMP lysis buffer (50 mM HEPES, 10 mM CaCl2, 0.35% Triton X-100, and 500 µM IBMX) was added and shaken at 700 rpm for 1 h. Lysate was transferred to a 384-well plate, and the cAMP levels were quantified using the Cisbio HTRF cAMP (Gi kit; Revvity, Waltham, MA, USA) according to the manufacturer’s protocol.

Molecule: somatostatin (AGCKNFFWKTFTSC; ends and bridges not checked; cysteine pairing not given here; UniProt P61278 103-116, looked up) [SST, Endogenous somatostatin receptor agonist]
effect on F/I-stimulated GLP-1 secretion ([1]; 1 µM SST, control- and hGPR17L-transduced cells (Figure S4A,B)): inhibited

Molecule: CCCCCCCCCCCCCC(=O)O[C@@H]1[C@@H](C)[C@@]2(O)[C@@H](C=C(CO)C[C@]3(O)C(=O)C(C)=C[C@@H]23)[C@@H]2C(C)(C)[C@]12OC(C)=O [PMA, phorbol 12-myristate 13-acetate]
increase in GLP-1 secretion ([1]; 300 nM PMA, control transduction condition): 4.14 ± 0.18 fold

Molecule: Cc1onc(-c2ccccc2Cl)c1C(=O)N(C)c1ccc(Cl)cc1 [GPBAR-A]
increase in GLP-1 secretion ([1]; 10 µM GPBAR-A, control transduction condition): 2.67 ± 0.17 fold

Continued, in another order:

effect on PMA-stimulated GLP-1 secretion ([2]; 100 nM YM-254890, 300 nM PMA, control or hGPR17L-expressing cells): no effect | effect on MDL29,951-mediated inhibition of PMA-stimulated GLP-1 secretion ([2]; 100 nM YM-254890, 100 µM MDL29,951, 300 nM PMA): no effect | effect on F/I-stimulated GLP-1 secretion ([2]; 3 µM YM-254890, hGPR17L-expressing cells): strong inhibitory effects | effect on 15 mM KCl-stimulated calcium mobilization ([3]; 100 ng/mL PTX or 100 nM YM-254890, Figure 2D): no effect | concentration giving robust inhibition of MDL29,951-stimulated calcium mobilization ([3]; 1 µM MDL29,951, concentration-response): ~ 100 nM | effect on 15 mM KCl-stimulated calcium flux ([3]; YM-254890 concentration-response, Figure S5D): no effect | effect on basal cAMP ([4]; 100 ng/mL PTX or 100 nM YM-254890, control- or hGPR17L-transduced): no effects | Predicted (LS) mean diff. ([4]; log [MDL29,951] (M) -4.0): 17.41 | Predicted (LS) mean diff. ([4]; log [MDL29,951] (M) -4.6): 19.49 | Predicted (LS) mean diff. ([4]; log [MDL29,951] (M) -5.2): 17.04 | Predicted (LS) mean diff. ([4]; log [MDL29,951] (M) -5.8): 11.34 | Predicted (LS) mean diff. ([4]; log [MDL29,951] (M) -6.4): 5.843 | Predicted (LS) mean diff. ([4]; log [MDL29,951] (M) -7.0): 2.922 | Predicted (LS) mean diff. ([4]; log [MDL29,951] (M) -7.6): 8.08 | Predicted (LS) mean diff. ([4]; log [MDL29,951] (M) -8.2): 13.01 | Predicted (LS) mean diff. ([4]; log [MDL29,951] (M) -8.8): 10.15 | Predicted (LS) mean diff. ([4]; log [MDL29,951] (M) -9.4): 6.783
Molecule: C=C1C(=O)NC(C)C(=O)N(C)C(C)C(=O)NC(C(OC(=O)C(NC(C)=O)C(O)C(C)C)C(C)C)C(=O)N(C)C(C(C)OC)C(=O)OC(C)C(NC(C)=O)C(=O)OC(Cc2ccccc2)C(=O)N1C (centres unmarked) [YM-254890] (Ac-T[PhLac][NMeDha]A[NMeA][X1][NMeT](Me); ester 1-C; configuration not given here)
effect on F/I-stimulated GLP-1 secretion ([1]; 100 nM YM-254890, GLUTag cells): inhibited | effect on F/I-stimulated GLP-1 secretion ([1]; 3 µM YM-254890, control cells): strong inhibitory effects | effect on PMA-stimulated GLP-1 secretion ([1]; YM-254890 concentration–response, 300 nM PMA): no effect

effect on MDL29,951-mediated inhibition of F/I-stimulated GLP-1 secretion ([2]; 10 µM HAMI3379): significantly attenuated
Molecule: O=C(O)c1ccc(OCCCc2ccc(OCCCCOC3CCCCC3)cc2)c(C(=O)NC2CCCC(C(=O)O)C2)c1 (centres unmarked) [HAMI3379]

cAMP levels in response to PGE2 stimulation, % of the control-transduced cells ([4]; 300 nM PGE2, hGPR17L-expressing cells): 83 ± 5.5%
Molecule: CCCCC[C@H](O)/C=C/[C@H]1[C@H](O)CC(=O)[C@@H]1C/C=C\CCCC(=O)O [PGE2, prostaglandin E2]
increase in GLP-1 secretion ([1]; 300 nM PGE2, control transduction condition): 1.90 ± 0.06 fold
